Experiments:
[1] = tested on: human brain glioma; assay: Inhibitory effect of chlorogenic acid on transplanted glioma in mice (tumor weight); type: in vivo; conditions: 15 d; for Tumor weight: x ± s
Protocol: (1) Model establishment 50 mice were divided into 5 groups, 10 mice for each group. The solution of brain glioblastoma cell lines was suitably diluted, and inoculated in cortex of left temporal lobe of mice in five groups, respectively.
(2) Administration and intervention After inoculated for 24 h, five groups of mice were administrated by intraperitoneal injection. […] (3) Measuring inhibitory rate On the last day, administration was ceased, and all mice were sacrificed. Mice were dissected, and tissue of tumor was removed and weighed. Inhibitory Rate=(the Mean Tumor Weight of Control Group−the Mean Tumor Weight of Treatment Group)/the Mean Tumor Weight of Control Group×100%. (4) Statistical method The data were presented as mean±standard deviation (x±s), and statistical analysis was performed using SPSS15.0 software, and p<0.05 was considered to be a statistically significant difference. 3. Results

[2] = tested on: human brain oligodendroglioma cells; assay: Inhibitory effect of chlorogenic acid on proliferation of primary culture human brain oligodendroglioma cells (MTT method / WST-1); type: cell-based; conditions: 48 h
[3] = tested on: C6 glioma cells; assay: In vitro inhibitory effect against C6 glioma cells by MTT method; type: cell-based, rat; conditions: 48 h; for OD values 1: replicate 1; for OD values 2: replicate 2; for OD values 3: replicate 3
Protocol: (§1) 3. Cell line: C6 rat glioma cell lines for experiment is provided by Key Laboratory of Transplant Engineering and Immunology, Ministry of health, West China Hospital, Sichuan University.
(§2) (1) Cells, growing in serum-containing medium and serum-free medium and presenting exponential growth phase, were taken out, and digested with pancreatin, to form single cells. Tumor cells were still seeded in serum-containing medium, while tumor stem cells were seeded in serum-free medium. Their concentrations were both adjusted to 2.0×10^5/ml, and cells were seeded in 96 well plate, 100 μl for each well. Amongst, four groups were experimental groups, and one group was negative control; the medium without cells was used as blank control, and each group had five repeated wells. Culture was carried out in an incubator at 37° C. with 5% CO2 and saturated humidity for one night. When seeding in 96 well plate, peripheral wells were not used to avoid the edge effect.
(§3) (2) Next day after inoculation, cells attached before administration was carried out and static culture was kept for 48 h.
(§4) (3) Wells for normal control group of tumor cells were included, and the wells were not treated with drug, and only equal amount (100 μl) of complete medium was added. Experiment on normal control group was performed, together with above three groups.
(§5) (4) The culture was continued under 5% CO2 at 37° C., and after culturing for 48 h, cells were placed under inverted microscope for observation and taking a picture.
(§6) (5) On sterile bench board, 20 μL 0.5% MTT was added to each well, and the culture was continued for 4 h. At 37° C., the culture was stood for overnight (same time for each group), then OD values were tested using microplate reader, while the absorbance of each well was measured at […].
(§7) (6) Calculating inhibitory rate of cell growth Formula: Inhibitory rate of cell growth IR (%)=1−(OD value of cells in experimental group/OD value of cells in control group)×100%. (III) Statistical Analysis

[4] = tested on: C6 glioma stem cells; assay: In vitro inhibitory effect against C6 glioma stem cells by MTT method; type: cell-based, rat; conditions: 48 h; for OD values 1: replicate 1; for OD values 2: replicate 2; for OD values 3: replicate 3
Protocol: as §1
(1) C6 cells were seeded in traditional serum medium and sub-cultured in culture bottle. Cells in exponential phase of growth were washed with PBS solution, digested with 0.25% trypsin, and pipetted by self-made pasteur pipette, to form single cells. Cells were resuspended in SFM, stained with trypan blue, and counted. Cells were seeded in culture bottle with a bottom area of 25 cm^2 at a concentration of 1×10^5/well, and placed in an incubator at 37° C. with 5% CO2 and saturated humidity for culture.
The medium was sucked out and centrifuged before half of old medium was removed, then centrifuged at 800 rpm/min for 5 min. The supernatant was discarded. Cells are resuspended in SFM, and gentle pipette with self-made pasteur pipette was repeated, for dissociating cell dumps into single cells. In a ratio of 1:2 or 1:3, cells were seeded in culture bottles with a bottom area of 25 cm^2, and diluted with SFM to 6 ml; alternatively, at the same concentration, cells were seeded in 6 well plate. To each well, was added 2.5 ml SFM, and continued culturing in an incubator at 37° C. with 5% CO2 and saturated humidity.
as §2, with “Amongst, four groups were experimental groups, and one group was negative control; the medium without cells was used as blank control, and each group had five repeated wells.” left out
as §3, §4, §5, §6, §7

[5] = High dose 40 mg/kg intraperitoneal
[6] = Low dose 10 mg/kg intraperitoneal
[7] = Rattus norvegicus, 16 μg/ml, read-out: Inhibitory rate (%)
[8] = Rattus norvegicus, 32 μg/ml, read-out: Inhibitory rate (%)
[9] = Rattus norvegicus, 64 μg/ml, read-out: Inhibitory rate (%)
[10] = Rattus norvegicus, 128 μg/ml, read-out: Inhibitory rate (%)

O=C(/C=C/c1ccc(O)c(O)c1)O[C@@H]1C[C@](O)(C(=O)O)C[C@@H](O)[C@H]1O [chlorogenic acid]
Inhibitory rate (%) [1, 5]: 60.58% | Tumor weight [1, 5]: 0.529 ± 0.168 g | Inhibitory rate (%) [1, 6]: 48.51% | Tumor weight [1, 6]: 0.690 ± 0.188 g | Inhibitory rate (%) ([1]; Middle dose 20 mg/kg intraperitoneal): 69.92% | Cellular morphology under inverted microscope ([2]; compared with normal control group): obvious decrease of cell numbers | inhibition at 32 µg/mL ([2]; Homo sapiens, 32 μg/ml, read-out: Inhibitory rate (%)): 39.9% | inhibition at 64 µg/mL ([2]; Homo sapiens, 64 μg/ml, read-out: Inhibitory rate (%)): 44.9% | inhibition at 128 µg/mL ([2]; Homo sapiens, 128 μg/ml, read-out: Inhibitory rate (%)): 60.4% | OD values mean ([3]; 16 μg/ml): 1.515 | OD values 1 ([3]; 16 μg/ml): 1.640 | OD values 2 ([3]; 16 μg/ml): 1.553 | OD values 3 ([3]; 16 μg/ml): 1.351 | OD values mean ([3]; 32 μg/ml): 1.472 | OD values 1 ([3]; 32 μg/ml): 1.558 | OD values 2 ([3]; 32 μg/ml): 1.573 | OD values 3 ([3]; 32 μg/ml): 1.286 | OD values mean ([3]; 64 μg/ml): 1.326 | OD values 1 ([3]; 64 μg/ml): 1.314 | OD values 2 ([3]; 64 μg/ml): 1.247 | OD values 3 ([3]; 64 μg/ml): 1.417 | OD values mean ([3]; 128 μg/ml): 1.028 | OD values 1 ([3]; 128 μg/ml): 1.021 | OD values 2 ([3]; 128 μg/ml): 1.023 | OD values 3 ([3]; 128 μg/ml): 1.041 | inhibition at 16 µg/mL [3, 7]: 32.1% | inhibition at 32 µg/mL [3, 8]: 34% | inhibition at 64 µg/mL [3, 9]: 40.6% | inhibition at 128 µg/mL [3, 10]: 53.9% | OD values mean ([4]; 16 μg/ml): 1.715 | OD values 1 ([4]; 16 μg/ml): 1.713 | OD values 2 ([4]; 16 μg/ml): 1.700 | OD values 3 ([4]; 16 μg/ml): 1.731 | OD values mean ([4]; 32 μg/ml): 1.634 | OD values 1 ([4]; 32 μg/ml): 1.533 | OD values 2 ([4]; 32 μg/ml): 1.739 | OD values 3 ([4]; 32 μg/ml): 1.631 | OD values mean ([4]; 64 μg/ml): 1.378 | OD values 1 ([4]; 64 μg/ml): 1.367 | OD values 2 ([4]; 64 μg/ml): 1.358 | OD values 3 ([4]; 64 μg/ml): 1.410 | OD values mean ([4]; 128 μg/ml): 1.223 | OD values 2 ([4]; 128 μg/ml): 1.200 | inhibition at 16 µg/mL [4, 7]: 23.2% | inhibition at 32 µg/mL [4, 8]: 26.8% | inhibition at 64 µg/mL [4, 9]: 38.2% | inhibition at 128 µg/mL [4, 10]: 45.2%

CC(=O)O[C@@]12CO[C@@H]1C[C@H](O)[C@@]1(C)C(=O)[C@H](O)C3=C(C)[C@@H](OC(=O)[C@H](O)[C@@H](NC(=O)OC(C)(C)C)c4ccccc4)C[C@@](O)([C@@H](OC(=O)c4ccccc4)[C@H]21)C3(C)C [Positive control group, docetaxel, reference compound]
Inhibitory rate (%) ([1]; 5 mg/kg intraperitoneal): 73.3% | Tumor weight ([1]; 5 mg/kg intraperitoneal): 0.389 ± 0.305 g

Reference: patent US10004713B2 (SICHUAN JIUZHANG BIOLOGICAL SCIENCE AND TECHNOLOGY CO., LTD, priority 2014, dated 2018)
